Data: paper PMC9329325, “Design, synthesis, in vitro biological assessment and molecular modeling insights for novel 3-(naphthalen-1-yl)-4,5-dihydropyrazoles as anticancer agents with potential EGFR inhibitory activity” (Scientific Reports, 2022)

Columns and labels:
MDA-MB-231 = test: MTT anti-proliferative assay, MDA-MB-231; assay type: cell-based, human; details: mean ± S.D. of 3 separate experiments
Method: (§1) The cytotoxic effects of herein prepared pyrazole- thiazol-4-one hybrids 9a-p against BC MDA-MB-231 and T-47D cell lines, obtained from American Type Culture Collection (ATCC), were determined using the MTT assay protocol. It is worth to mention that the selected cancer cell lines in this study are EGFR-expressing cell lines[25]–[28]. Doxorubicin and Erolitinib were utilized as positive control (Table 1).
(§2) All the biological assays conducted in this study were performed as reported earlier; MTT cytotoxicity[31],[32] cell cycle, Annexin V-FITC Apoptosis[34]–[36] and EGFR kinase[37] assays, (Supplementary Materials).
(§3) 1. Anti-proliferative activity
(§4) The two examined breast cancer cell lines (MDA-MB-231 and T-47D) as well as the normal breast MCF-10A cells have been obtained from American Type Culture Collection (ATCC). Cells lines were maintained as monolayers in Dulbecco’s Modified Eagle’s Medium (DMEM) supplemented with 10% FBS, 2 mM L-glutamine, 100 U/ml penicillin and 100µg/ml streptomycin sulfate. Cells were sub-cultured with trypsine /EDTA solution, counted with haemocytometer and plated onto 96-well plates (5000 cells/well) and left overnight to form a semi-confluent monolayer.
(§5) Cell monolayers were treated in quadrates with vehicle (DMSO, 0.1% v/v), test samples (thiazolyl-pyrazolines 9a-p) or Doxorubicin as positive control for an exposure time of 48 h. At the end of exposure, MTT solution in PBS (5 mg/ml) was then added to all well including no cell blank and left to incubate for 90 min. The formation of formazan crystals were visually confirmed using phase contract microscopy. DMSO (100 µl/well) was added to dissolve the formazan crystals with shaking for 10 min after which the absorbance was read at 590 nm against no cell blanks on a FLuo Star Optima microplate reader (BMG technologies, Germany). Cell proliferation was calculated comparing the OD values of the DMSO control wells and those of the samples represented as % proliferation to the control. Dose-response experiment was performed on samples producing > or =50% loss of cell proliferation using five serial 2-fold dilutions (50, 25, 12.5, 6.25 and 3.125 µM) of the sample. IC50 values (concentration of sample causing 50% loss of cell proliferation of the vehicle control) were calculated using non-linear regression curve fitting of the dose response plots on GraphPad Prism V.6.0 software. […]

T-47D = test: MTT anti-proliferative assay, T-47D; assay type: cell-based, human; details: 48 h exposure, mean ± S.D. of 3 separate experiments
Method: as §1, §2, §3, §4, §5

MCF-10A = test: MTT cytotoxicity toward normal breast MCF-10A cells; assay type: cell-based; details: Homo sapiens, 48 h exposure, mean ± S.D. of 3 separate experiments
Method: as §2, §3, §4, §5

MDA-MB-231 cells [1] = test: Cell cycle analysis by PI flow cytometry; assay type: cell-based, human; details: at IC50 concentration (9g 0.62 µM, 9k 1.14 µM), 24 h; for %Sub-G1: control 2.13%; for %S: control 32.11%
Method: All the biological assays conducted in this study were performed as reported earlier; MTT cytotoxicity[31],[32] cell cycle, Annexin V-FITC Apoptosis[34]–[36] and EGFR kinase[37] assays, (Supplementary Materials). […]
The two examined breast cancer cell lines (MDA-MB-231 and T-47D) as well as the normal breast MCF-10A cells have been obtained from American Type Culture Collection (ATCC). Cells lines were maintained as monolayers in Dulbecco’s Modified Eagle’s Medium (DMEM) supplemented with 10% FBS, 2 mM L-glutamine, 100 U/ml penicillin and 100µg/ml streptomycin […]
sulfate. […]
Breast cancer MDA-MB-231 cells were treated with compounds 9g and 9k for 24 h (at their IC50 concentration), and then cells were washed twice with ice-cold phosphate buffered saline (PBS). Subsequently, the treated cells were collected by centrifugation, fixed in ice-cold 70% (v/v) ethanol, washed with PBS, re-suspended with 100 μg/mL RNase, stained with 40 μg/mL PI, and analyzed by flow cytometry using FACS Calibur (Becton Dickinson, BD, Franklin Lakes, NJ, USA). The cell cycle distributions were calculated using CellQuest software 5.1 (Becton

MDA-MB-231 cells [2] = test: Annexin V-FITC/PI apoptosis assay; assay type: cell-based, human; details: at IC50 concentration (9g 0.62 µM, 9k 1.14 µM), 48 h; for Late apoptosis (upper right %): control 0.21%; for Early apoptosis (lower right %): control 0.73%; for Total apoptosis (L.R % + U.R %): control 0.94%
Method: as §2
3. Annexin V-FITC Apoptosis Assay
Phosphatidylserine externalization was assayed using Annexin V-FITC/PI apoptosis detection kit (BD Biosciences, USA) according to the manufacturer’s instructions. Breast cancer MDA-MB-231 cells were cultured to a monolayer then treated with compounds 9g and 9k at their IC50 concentration. Briefly, cells were then harvested via trypsinization, and rinsed twice in PBS followed by binding buffer. Moreover, cells were re-suspended in 100 μL of binding buffer with the addition of 1 μL of FITC-Annexin V followed by an incubation period of 30 min at 4 °C. Cells were then rinsed in binding buffer and resuspended in 150 μL of binding buffer with the addition

EGFR = EGFR (Homo sapiens, UniProt P00533); test: EGFR kinase inhibitory activity (ADP-Glo Kinase Assay)
Method: Cells were then analyzed using the flow cytometer BD FACS Canto II and the results were interpreted with FlowJo7.6.4 software (Tree Star, Ashland, OR, 4. EGFR Kinase Inhibitory Activity
ADP-Glo™ Kinase Assay (Promega, Catalogue No. V3831) which is a luminescent kinase assay that measures ADP formed from a kinase reaction. ADP is converted into ATP which is converted into light by Ultra‐Glo™ Luciferase. The luminescent signal positively correlates with ADP amount and kinase activity.
Protocol: first dilute enzyme, substrate, ATP and inhibitors in Tyrosine Kinase Buffer (40 mM Tris,7.5; 20 mM MgCl2; 0.1 mg/ml BSA (bovine serum albumin); 2 mM MnCl2; 50μM DTT),
and 2 μl of substrate/ATP mix. Incubate at room temperature for 60 minutes, add 5 μl of ADP‐ Glo™ Reagent, incubate at room temperature for 40 minutes, add 10 μl of Kinase Detection reagent, incubate at room temperature for 30 minutes and finally record luminescence (Integration time 0.5‐1second).

[3] = Homo sapiens, MDA-MB-231, 48 h, 48 h exposure

Chain of EGFR (P00533 25-1210): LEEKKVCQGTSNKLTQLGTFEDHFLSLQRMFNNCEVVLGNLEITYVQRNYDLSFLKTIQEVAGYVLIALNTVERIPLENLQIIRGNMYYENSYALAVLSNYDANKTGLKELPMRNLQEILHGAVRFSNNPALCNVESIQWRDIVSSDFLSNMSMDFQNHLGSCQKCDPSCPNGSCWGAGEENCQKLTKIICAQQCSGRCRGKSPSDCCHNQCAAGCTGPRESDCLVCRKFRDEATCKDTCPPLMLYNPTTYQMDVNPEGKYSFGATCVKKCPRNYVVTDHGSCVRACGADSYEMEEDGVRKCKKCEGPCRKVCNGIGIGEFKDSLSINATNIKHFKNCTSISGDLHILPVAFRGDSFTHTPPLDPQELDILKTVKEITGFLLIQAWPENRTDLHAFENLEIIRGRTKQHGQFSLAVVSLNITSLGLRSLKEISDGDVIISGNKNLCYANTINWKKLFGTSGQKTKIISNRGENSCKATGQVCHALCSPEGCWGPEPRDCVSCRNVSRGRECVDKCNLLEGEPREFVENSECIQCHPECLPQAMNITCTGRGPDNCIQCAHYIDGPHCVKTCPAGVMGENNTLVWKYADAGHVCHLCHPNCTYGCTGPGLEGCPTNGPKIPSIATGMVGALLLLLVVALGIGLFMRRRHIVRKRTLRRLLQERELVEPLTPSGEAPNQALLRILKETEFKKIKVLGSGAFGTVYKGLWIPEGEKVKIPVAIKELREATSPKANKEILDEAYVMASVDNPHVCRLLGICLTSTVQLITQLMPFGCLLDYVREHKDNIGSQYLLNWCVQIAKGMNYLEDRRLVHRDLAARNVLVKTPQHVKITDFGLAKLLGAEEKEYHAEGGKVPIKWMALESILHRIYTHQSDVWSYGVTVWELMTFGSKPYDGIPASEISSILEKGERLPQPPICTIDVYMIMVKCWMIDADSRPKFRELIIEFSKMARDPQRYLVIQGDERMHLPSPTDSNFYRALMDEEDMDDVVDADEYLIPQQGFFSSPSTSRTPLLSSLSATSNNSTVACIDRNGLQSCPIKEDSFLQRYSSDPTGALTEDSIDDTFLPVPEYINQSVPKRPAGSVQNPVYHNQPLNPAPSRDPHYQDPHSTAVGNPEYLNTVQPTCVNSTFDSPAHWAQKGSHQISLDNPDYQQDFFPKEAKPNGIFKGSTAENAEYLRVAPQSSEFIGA

Row | IC50 (MDA-MB-231; [3]) [µM] | IC50 (T-47D; Homo sapiens, T47D, 48 h) [µM] | Compound | IC50 (MCF-10A) [µM] | further results
1 | 19.8 ± 1.08 | > 100 | O=C1N=C(N2N=C(c3cccc4ccccc34)CC2c2ccc(F)cc2)S/C1=C/c1ccccc1 (stereo not shown) [Compound 9a] | – | IC50 (T-47D): > 100 µM; IC50 T-47D (T-47D): inactive
2 | 12.2 ± 0.67 | 18.6 ± 0.87 | O=C1N=C(N2N=C(c3cccc4ccccc34)CC2c2ccc(F)cc2)S/C1=C/c1ccc(O)cc1 (stereo not shown) [Compound 9b] | – | –
3 | – | 8.45 ± 0.27 | CN(C)c1ccc(/C=C2/SC(N3N=C(c4cccc5ccccc45)CC3c3ccc(F)cc3)=NC2=O)cc1 (stereo not shown) [Compound 9c] | 47 ± 3.52 | –
4 | 45 ± 2.45 | > 100 | COc1ccccc1/C=C1/SC(N2N=C(c3cccc4ccccc34)CC2c2ccc(F)cc2)=NC1=O (stereo not shown) [Compound 9d] | – | IC50 (T-47D): > 100 µM; IC50 T-47D (T-47D): inactive
5 | 14.1 ± 0.77 | 12.4 ± 0.33 | COc1ccc(/C=C2/SC(N3N=C(c4cccc5ccccc45)CC3c3ccc(F)cc3)=NC2=O)cc1 (stereo not shown) [Compound 9e] | – | –
6 | – | 27.1 ± 1.08 | COc1cccc(/C=C2/SC(N3N=C(c4cccc5ccccc45)CC3c3ccc(F)cc3)=NC2=O)c1O (stereo not shown) [Compound 9f] | 42.6 ± 2.81 | –
7 | – | 3.14 ± 0.11 | COc1ccc(C=C2SC(N3N=C(c4cccc5ccccc45)CC3c3ccc(F)cc3)=NC2=O)cc1O (stereo not shown) [Compound 9g] | 31.7 ± 3.1 | %Sub-G1 (MDA-MB-231 cells [1]): 31.05%; %G2/M (MDA-MB-231 cells [1]; control 12.31%): 2%; %S (MDA-MB-231 cells [1]): 35.43%; Late apoptosis (upper right %) (MDA-MB-231 cells [2]): 23.93%; Early apoptosis (lower right %) (MDA-MB-231 cells [2]): 8.39%; Total apoptosis (L.R % + U.R %) (MDA-MB-231 cells [2]): 32.32%; IC50 (EGFR): 0.267 ± 0.012 µM
8 | < 10 | 11.4 ± 0.67 | COc1cc(/C=C2/SC(N3N=C(c4cccc5ccccc45)CC3c3ccc(F)cc3)=NC2=O)ccc1O (stereo not shown) [Compound 9h] | 79.5 ± 5.27 | IC50 (MDA-MB-231; 48 h exposure): 5.82 ± 0.317 µM
9 | 24.7 ± 1.35 | > 100 | O=C1N=C(N2N=C(c3cccc4ccccc34)CC2c2ccc(Cl)cc2)S/C1=C/c1ccccc1 (stereo not shown) [Compound 9i] | – | IC50 (T-47D): > 100 µM; IC50 T-47D (T-47D): inactive
10 | < 10 | 35.1 ± 2.04 | O=C1N=C(N2N=C(c3cccc4ccccc34)CC2c2ccc(Cl)cc2)S/C1=C/c1ccc(O)cc1 (stereo not shown) [Compound 9j] | 65.4 ± 5.04 | IC50 (MDA-MB-231; 48 h exposure): 6.24 ± 0.34 µM
11 | – | 4.92 ± 0.28 | CN(C)c1ccc(C=C2SC(N3N=C(c4cccc5ccccc45)CC3c3ccc(Cl)cc3)=NC2=O)cc1 (stereo not shown) [Compound 9k] | 58.5 ± 4.36 | %Sub-G1 (MDA-MB-231 cells [1]): 27.86%; %S (MDA-MB-231 cells [1]): 28.45%; %G0-G1 (MDA-MB-231 cells [1]; control 53.45%): 40.61%; Late apoptosis (upper right %) (MDA-MB-231 cells [2]): 20%; Early apoptosis (lower right %) (MDA-MB-231 cells [2]): 14.22%; Total apoptosis (L.R % + U.R %) (MDA-MB-231 cells [2]): 34.22%; IC50 (EGFR): 0.395 ± 0.017 µM
12 | 58 ± 3.16 | > 100 | COc1ccccc1/C=C1/SC(N2N=C(c3cccc4ccccc34)CC2c2ccc(Cl)cc2)=NC1=O (stereo not shown) [Compound 9l] | – | IC50 (T-47D): > 100 µM; IC50 T-47D (T-47D): inactive
13 | 18.9 ± 1.03 | 27.6 ± 1.24 | COc1ccc(/C=C2/SC(N3N=C(c4cccc5ccccc45)CC3c3ccc(Cl)cc3)=NC2=O)cc1 (stereo not shown) [Compound 9m] | – | –
14 | 35.1 ± 1.92 | 67.3 ± 2.51 | COc1cccc(/C=C2/SC(N3N=C(c4cccc5ccccc45)CC3c3ccc(Cl)cc3)=NC2=O)c1O (stereo not shown) [Compound 9n] | – | –
15 | 10.8 ± 0.59 | 7.36 ± 0.3 | COc1ccc(/C=C2/SC(N3N=C(c4cccc5ccccc45)CC3c3ccc(Cl)cc3)=NC2=O)cc1O (stereo not shown) [Compound 9o] | – | –
16 | 10.8 ± 0.59 | 19.5 ± 0.92 | COc1cc(/C=C2/SC(N3N=C(c4cccc5ccccc45)CC3c3ccc(Cl)cc3)=NC2=O)ccc1O (stereo not shown) [Compound 9p] | 83.6 ± 6.74 | IC50 (MDA-MB-231; 48 h exposure): 6.55 ± 0.357 µM
17 | 3.67 ± 0.2 | 2.73 ± 0.09 | COc1cccc2c1C(=O)c1c(O)c3c(c(O)c1C2=O)C[C@@](O)(C(=O)CO)C[C@@H]3O[C@H]1C[C@H](N)[C@H](O)[C@H](C)O1 [Doxorubicin, reference compound] | – | –
18 | – | – | C#Cc1cccc(Nc2ncnc3cc(OCCOC)c(OCCOC)cc23)c1 [Erlotinib, reference compound] | – | IC50 (MDA-MB-231; Homo sapiens, MDA-MB-231, 48 h exposure): 2.88 ± 0.17 µM; IC50 (T-47D; Homo sapiens, T47D): 3.61 ± 0.24 µM
